In patent US20240400553A1, “AMINE BASED MATRIPTASE 2 INHIBITORS AND USES THEREOF” (Disc Medicine, Inc., priority 2023, published 2024):

target: T1, Human Recombinant Matriptase 2 (Homo sapiens, UniProt Q8IU80); test: Matriptase 2 inhibition, fluorescence based assay (Method I); type: biochemical; details: Table A; Ki of Matriptase-2; read-out: Mat-2 Ki
T1 construct: made in house
T1 sequence (Q8IU80 1-811): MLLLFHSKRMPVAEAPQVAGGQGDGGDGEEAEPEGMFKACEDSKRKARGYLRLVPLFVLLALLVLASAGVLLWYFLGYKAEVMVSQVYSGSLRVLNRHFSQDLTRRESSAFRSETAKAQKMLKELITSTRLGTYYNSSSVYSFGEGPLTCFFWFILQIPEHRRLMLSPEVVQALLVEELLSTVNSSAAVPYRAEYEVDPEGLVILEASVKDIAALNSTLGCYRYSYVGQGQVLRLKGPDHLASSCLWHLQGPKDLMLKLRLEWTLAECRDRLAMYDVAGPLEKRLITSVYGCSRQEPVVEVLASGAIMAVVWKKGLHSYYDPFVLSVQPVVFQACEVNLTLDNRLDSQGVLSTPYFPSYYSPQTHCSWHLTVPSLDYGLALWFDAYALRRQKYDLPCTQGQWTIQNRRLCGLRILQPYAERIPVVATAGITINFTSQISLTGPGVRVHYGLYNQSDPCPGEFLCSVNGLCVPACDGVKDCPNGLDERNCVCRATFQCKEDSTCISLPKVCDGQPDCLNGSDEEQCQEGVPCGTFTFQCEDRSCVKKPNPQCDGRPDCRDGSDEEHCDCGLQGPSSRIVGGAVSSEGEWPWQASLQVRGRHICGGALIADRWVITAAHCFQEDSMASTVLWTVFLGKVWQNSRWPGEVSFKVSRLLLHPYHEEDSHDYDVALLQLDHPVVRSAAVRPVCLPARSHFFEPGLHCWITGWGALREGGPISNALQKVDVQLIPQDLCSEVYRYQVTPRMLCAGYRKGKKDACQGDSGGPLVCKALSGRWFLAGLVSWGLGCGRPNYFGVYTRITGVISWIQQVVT
Procedure: • Method I: Test compounds were evaluated for their potential to inhibit Human Recombinant Matriptase 2 (in-house) using fluorescence based assay. The concentration of Recombinant Matriptase 2 and the substrate used in the assay was: 3.5 nM (In-house Matriptase 2) and 62 μM (Boc-Gln-Ala-Arg-7-amido-4-methyl coumarin hydrobromide −Cat log: I-1550 from Bachem) respectively. The assay buffer used was 50 mM TRIS pH 7.5, 150 mM NaCl, 0.01% Gelatin TCL059 Himedia). The assay was performed using 384 well black flat bottom plate from grenier (Cat log: 781076) at 25° C. The enzyme and compound were preincubated for 30 mins, the plate was read at 60 mins after substrate addition at wavelength Ex: 360/Em: 480 nm. The final assay volume was 20 μl. A stock solution of compounds was initially prepared in DMSO and appropriate dilutions were made and IC50 was determined for all the compounds (final DMSO conc in the assay was 1%). All the measurements were carried out using the Spectramax M5, Molecular devices.
To determine Ki values, dose response curves were generated by plotting percentage inhibition as a function of inhibitor concentration and the data was fitted to sigmoidal non-linear regression equation (variable slope) using Graph Pad prism software V8.

Row | SMILES | Ki
1 | NCc1ccc2cc(C(=O)OCCC3CCOCC3)n(Cc3cc(NS(=O)(=O)Cc4ccsc4)cc4ccccc34)c2n1 [Compound 179, 2-(oxan-4-yl)ethyl 6-(aminomethyl)-1-({3-[(thiophen-3-yl)methane-sulfonamido]naphthalen-1-yl}methyl)-1H-pyr-rolo[2,3-b]pyridine-2-carboxylate] | 0.1 to 0.5 µM
2 | CC(C)N1CCC(COC(=O)c2cc3ccc(CN)nc3n2Cc2cc(NS(=O)(=O)Cc3ccccc3)cc3ccccc23)CC1 [Compound 15] | ≤ 0.1 µM
3 | CC(C)N1CCC(OC(=O)c2cc3ccc(CN)nc3n2Cc2cc(NS(=O)(=O)Cc3ccccc3)cc3ccccc23)CC1 [Compound 16, 1-(propan-2-yl)piperidin-4-yl 6-(aminomethyl)-1-{[3-(phenylmethane-sulfonamido)naphthalen-1-yl]methyl}-1H-pyr-rolo[2,3-b]pyridine-2-carboxylate] | ≤ 0.1 µM
4 | C[C@H](COC(=O)c1cc2ccc(CN)nc2n1Cc1cc(NS(=O)(=O)Cc2ccccc2)cc2ccccc12)CN1CCOCC1 (racemic) [Compound 145, rac-(2R)-2-methyl-3-(morpholin-4-yl)propyl 6-(aminomethyl)-1-{[3-(phenylmethanesulfon-amido)naphthalen-1-yl]-methyl}-1H-pyrrolo[2,3-b]pyridine-2-carboxylate] | ≤ 0.1 µM
5 | CC(C)n1ccnc1COC(=O)c1cc2ccc(CN)nc2n1Cc1cc(NS(=O)(=O)Cc2ccccc2)cc2ccccc12 [Compound 74, [1-(propan-2-yl)-1H-imidazol-2-yl]methyl 6-(aminomethyl)-1-{[3-(phenylmethanesulfon-amido)naphthalen-1-yl]-methyl}-1H-pyrrolo-[2,3-b]pyridine-2-car-boxylate] | ≤ 0.1 µM
6 | CC(C)OC(=O)c1cc2ccc(CN)nc2n1Cc1cc(NS(=O)(=O)Cc2ccccc2)cc2ccccc12 [Compound 112, propan-2-yl 6-(amino-methyl)-1-{[3-(phenyl-methanesulfonamido)-naphthalen-1-yl]methyl}-1H-pyrrolo[2,3-b]pyr-idine-2-carboxylate] | 0.5 to 3 µM
7 | NCc1ccc2cc(C(=O)OCCN3CCOCC3)n(Cc3cc(NS(=O)(=O)Cc4ccccc4)cc4ccccc34)c2n1 [Compound 50, 2-(morpholin-4-yl)ethyl 6-(aminomethyl)-1-{[3-(phenylmethanesulfon-amido)naphthalen-1-yl]-methyl}-1H-pyrrolo[2,3-b]pyridine-2-carboxylate] | ≤ 0.1 µM
8 | NCc1ccc2cc(C(=O)OCCNC(N)=O)n(Cc3cc(NS(=O)(=O)Cc4ccccc4)cc4ccccc34)c2n1 [Compound 94, 2-(carbamoylamino)-ethyl 6-(aminomethyl)-1-{[3-(phenylmethanesul-fonamido)naphthalen-1-yl]methyl}-1H-pyrrolo-[2,3-b]pyridine-2-carbox-ylate] | 0.1 to 0.5 µM
9 | CC(=O)N(C)CCOC(=O)c1cc2ccc(CN)nc2n1Cc1cc(NS(=O)(=O)Cc2ccsc2)cc2ccccc12 [Compound 171, 2-(N-methylacetamido)-ethyl 6-(aminomethyl)-1-({3-[(thiophen-3-yl)-methanesulfonamido]-naphthalen-1-yl}meth-yl)-1H-pyrrolo[2,3-b]-pyridine-2-carboxylate] | ≤ 0.1 µM

same assay, conditions: Table A; Ki of Matriptase-2 given as class symbols; read-out: Mat-2 Ki

Row | SMILES | Ki
10 | NCc1ccc2cc(C(=O)O)n(Cc3cc(NC(=O)N4CC5CC(C5)C4)cc4ccccc34)c2n1 [Compound 308, 6-(aminomethyl)-1-{[3-({3-azabicyclo[3.1.1]-heptane-3-carbonyl}-amino)naphthalen-1-yl]-methyl}-1H-pyrrolo[2,3-b]pyridine-2-carboxylic acid] | 0.5 to 3 µM
11 | CC(C)N(CCOC(=O)Nc1cc(Cn2c(C(=O)O)cc3ccc(CN)nc32)c2ccccc2c1)C(C)C [Compound 338, 6-(aminomethyl)-1-({3-[({2-[bis(propan-2-yl)-amino]ethoxy}carbonyl)-amino]naphthalen-1-yl}-methyl)-1H-pyrrolo[2,3-b]pyridine-2-carboxylic acid] | 0.5 to 3 µM
12 | NCc1ccc2cc(C(=O)O)n(Cc3cc(NS(=O)(=O)Cc4ccccn4)cc4ccccc34)c2n1 [Compound 222, 6-(aminomethyl)-1-({3-[(pyridin-2-yl)methane-sulfonamido]naphthalen-1-yl}methyl)-1H-pyr-rolo[2,3-b]pyridine-2-carboxylic acid] | 0.1 to 0.5 µM
13 | CC(=O)O[C@H](C)OC(=O)c1cc2ccc(CN)nc2n1Cc1cc(NS(=O)(=O)CC2CCNCC2)cc2ccccc12 (racemic) [Compound 263, 1-[6-(aminomethyl)-1-({3-[(piperidin-4-yl)-methanesulfonamido]-naphthlen-1-yl}methyl)-1H-pyrrolo[2,3-b]pyr-idine-2-carbonyloxy]-ethyl acetate] | 0.1 to 0.5 µM
14 | NCc1ccc2cc(C(=O)O)n(Cc3cc(NC(=O)OC[C@H]4CCN4Cc4ccccc4)cc4ccccc34)c2n1 (racemic) [Compound 340, rac-6-(aminomethyl)-1-({3-[({[(2R)-1-benzyl-azetidin-2-yl]methoxy}-carbonyl)amino]naph-thalen-1-yl}methyl)-1H-pyrrolo[2,3-b]pyridine-2-carboxylic acid] | 0.5 to 3 µM
15 | NCc1ccc2cc(CO)n(Cc3cc(NS(=O)(=O)Cc4ccccc4)cc4ccccc34)c2n1 [Compound 365, N-(4-((6-(aminomethyl)-2-(hydroxymethyl)-1H-pyrrolo[2,3-b]pyridin-1-yl)methyl)naphthalen-2-yl)-1-phenylmethanesulfonamide] | 0.5 to 3 µM
16 | NCc1ccc2cc(C(=O)O)n(Cc3cc(NS(=O)(=O)CC4CCC(C(F)(F)F)CC4)cc4ccccc34)c2c1 (centres unmarked) [Compound 392] | 0.5 to 3 µM
17 | NCc1ccc2cc(C(=O)O)n(Cc3cc(NS(=O)(=O)Cc4ccco4)cc4ccccc34)c2n1 [Compound 236, 6-(aminomethyl)-1-({3-[(furan-2-yl)methane-sulfonamido]naphthalen-1-yl}methyl)-1H-pyr-rolo[2,3-b]pyridine-2-carboxylic acid] | 0.1 to 0.5 µM
18 | NCc1ccc2cc(C(=O)O)n(Cc3cc(NC(=O)N4CC5CCCC5C4)cc4ccccc34)c2n1 (centres unmarked) [Compound 297, 6-(aminomethyl)-1-{[3-({octahydrocyclopenta-[c]pyrrole-2-carbonyl}-amino)naphthalen-1-yl]-methyl}-1H-pyrrolo[2,3-b]pyridine-2-carboxylic acid] | 0.5 to 3 µM
19 | CN1CCC(COC(=O)c2cc3ccc(CN)nc3n2Cc2cc(NS(=O)(=O)Cc3ccccc3F)cc3ccccc23)CC1 [Compound 205, (1-methylpiperidin-4-yl)methyl 6-(aminometh-yl)-1-({3-[(2-fluorophen-yl)methanesulfonamido]-naphthalen-1-yl}methyl)-1H-pyrrolo[2,3-b]pyr-idine-2-carboxylate] | ≤ 0.1 µM
20 | COc1ccc(Cl)cc1CS(=O)(=O)Nc1cc(Cn2c(C(=O)O)cc3ccc(CN)nc32)c2ccccc2c1 [Compound 247, 6-(aminomethyl)-1-({3-[(5-chloro-2-methoxy-phenyl)methanesulfon-amido]naphthalen-1-yl}-methyl)-1H-pyrrolo[2,3-b]pyridine-2-carboxylic acid] | 0.5 to 3 µM
21 | NCc1ccc2cc(C(=O)O)n(Cc3cc(NS(=O)(=O)CCc4ccccc4)cc4ccccc34)c2n1 [Compound 230, 6-(aminomethyl)-1-{[3-(2-phenylethanesulfon-amido)naphthalen-1-yl]-methyl}-1H-pyrrolo[2,3-b]pyridine-2-carboxylic acid] | 0.1 to 0.5 µM
22 | NCc1ccc2cc(C(=O)O)n(Cc3cc(NS(=O)(=O)Cc4cccnc4)cc4ccccc34)c2n1 [Compound 242, 6-(aminomethyl)-1-({3-[(pyridin-3-yl)methane-sulfonamido]naphthalen-1-yl}methyl)-1H-pyr-rolo[2,3-b]pyridine-2-carboxylic acid] | 0.1 to 0.5 µM
23 | Cn1ccnc1COC(=O)c1cc2ccc(CN)cc2n1Cc1cc(NS(=O)(=O)Cc2ccccc2)cc2ccccc12 [Compound 383, (1-methyl-1H-imidazol-2-yl)methyl 6-(amino-methyl)-1-{[3-(phenyl-methanesulfonamido)-naphthalen-1-yl]meth-yl}-1H-indole-2-carbox-ylate] | ≤ 0.1 µM
